US6570010B2, “Inclusion compounds of vanillyl alcohol derivative in cyclodextrin and compositions containing the same” (Takasago International Corporation, priority 2000, dated 2003)

Assay: Solubility in water of 20° C.
Assay type: physicochemical
Conditions: wt. %
Description: In this table, vanillyl-n-butyl ether will be abbreviated as VBE.

With CCCCOCc1ccc(O)c(OC)c1 [VBE, vanillyl-n-butyl ether] the “Solubility of VBE in terms of concentration” value was <0.002%.
